Test results taken from patent publication EP1092007B1, “A NEW IMPROVED ENZYME CONTAINING GRANULE” (Novozymes A/S, priority 1998, dated 2000).

Experiment: Measurement of constant humidity values for coating compounds
Assay type: physicochemical
Conditions: for CH20°C (constant humidity): 20°C; for CH20°C (constant humidity) / CH25°C (constant humidity): % RH of air over saturated aqueous solution; for Constant humidities at 25°C / CH25°C (constant humidity): 25°C
Procedure: The term "constant humidity" (in the context of the invention sometimes abbreviated as CH) of a compound or substance is to be understood as the % RH of atmospheric air in equilibrium with a saturated aqueous solution of said compound in contact with the solid phase of said compound, all confined within a closed space at a given temperature. […] Accordingly CH20 °C =50% for a compound means that air with a 50% humidity will be in equilibrium with a saturated aqueous solution of the compound at 20°C. Accordingly the term constant humidity is a measure of the hygroscopic properties of a compound.
The constant humidity of water soluble compound coating materials were measured by preparing a saturated aqueous solution with excess of solid phase of the compound in an open beaker.

| SMILES | CH20°C (constant humidity) [%] | Constant humidities at 25°C | CH25°C (constant humidity) [%] |
| --- | --- | --- | --- |
| N.O=P(O)(O)O [(NH4)H2PO4] | 93.1 | – | – |
| N.N.O=S(=O)(O)O [Ammonium sulfate] | – | 79 | – |
| O=S(=O)([O-])[O-].[K+].[K+] [Example K2SO4, K2SO4] | – | – | 99 |
| O=P([O-])(O)O.[K+] [KH2PO4] | 92 | – | – |
| O=S(=O)([O-])O.[K+] [KHSO4] | 86 | – | – |
| O=P([O-])([O-])O.[Na+].[Na+] [Na2HPO4] | 95 | – | – |
| O=S(=O)([O-])[O-].[Na+].[Na+] [Na2SO4, sodium sulfate] | 93 | 93 | – |
| O=P([O-])([O-])[O-].[Na+].[Na+].[Na+] [Na3PO4] | – | – | 92 |
| O=S(=O)([O-])[O-].[Zn+2] [ZnSO4] | 90 | – | – |
| O=C([O-])CC(O)(CC(=O)[O-])C(=O)[O-].[Na+].[Na+].[Na+] [sodium citrate] | – | 86 | 86 |
| O=C[O-].[Na+] [sodium formiate] | – | 56 | – |
